We go through 6 molecules from patent publication US20020004218A1, “Methods for identifying compounds useful for inhibiting geranylgeranyl diphosphate synthase” (priority 2000, published 2002).

Each structure is given as a SMILES string.

The target in assay [1] is T1, rat liver squalene synthase (Rattus norvegicus, UniProt Q02769).
T1 construct: host or cells: rat liver
T1 sequence (Q02769 1-416): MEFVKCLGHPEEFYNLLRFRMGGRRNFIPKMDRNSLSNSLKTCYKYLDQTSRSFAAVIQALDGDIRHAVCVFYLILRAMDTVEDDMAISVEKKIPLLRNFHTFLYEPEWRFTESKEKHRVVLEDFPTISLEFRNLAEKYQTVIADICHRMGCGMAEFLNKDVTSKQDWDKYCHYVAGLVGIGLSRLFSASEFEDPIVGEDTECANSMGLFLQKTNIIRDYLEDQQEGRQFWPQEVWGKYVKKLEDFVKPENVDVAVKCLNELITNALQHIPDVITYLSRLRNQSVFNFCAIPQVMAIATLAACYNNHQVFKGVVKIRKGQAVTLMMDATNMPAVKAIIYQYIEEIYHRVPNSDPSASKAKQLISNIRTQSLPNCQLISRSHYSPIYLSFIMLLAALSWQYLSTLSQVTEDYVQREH
Conditions: cited from earlier work.

Another assay deals with sterol synthesis. The following applies: incorporation of 14C-MVA into sterol, rat liver cell-free system; read-out: IC50, block of sterol synthesis; cited from earlier work.
A further assay deals with osteoclasts. Conditions: osteoclasts in culture; cited from earlier work.
Assay [2] deals with geranylgeranyl diphosphate synthase. An excerpt:
The present invention relates to a method for identifying inhibitors of geranylgeranyl diphosphate synthase comprising:
a). contacting a putative geranylgeranyl diphosphate synthase inhibitor with a geranylgeranyl diphosphate synthase assay solution, and
b). determining, i.e. comparing, the geranylgeranyl diphosphate synthase activity of said assay solution with a geranylgeranyl diphosphate synthase assay solution not contacted with said putative inhibitor, in order to determine the amount of inhibition.
In these methods the geranylgeranyl diphosphatesynthase assay solution is typically an aqueous solution. The inhibition effect is measured with respect to the catalysis of an appropriate reaction that one of ordinary skill in the art can select. Reaction times, conditions, quatitation methods, and other variables are chosen for convenience to obtain a readily quantitated system for measuring the inhibition of the geranylgeranyl diphosphate synthase.
Additionally, in these methods of identifying inhibitors of geranylgeranyl diphosphate synthase, the enzyme can be used in a crude, unpurified state, from various tissues sources, e.g., liver. Alternatively, the enzyme can be used in a partially purified state, a purified state, or as an expressed form of the enzyme, e.g., the expressed human enzyme.

Take `NCCCC(O)(P(=O)(O)O)P(=O)(O)O` [alendronate, 4-amino-1-hydroxybutylidene-1,1-bisphosphonic acid monosodium trihydrate]: the “inhibition of squalene synthase” value in assay [1] is “comparatively little effect”. Moreover, in the assay on sterol synthesis, the IC50 (commonly the midpoint of a concentration-inhibition curve) was 168 nM. Moreover, in the assay on osteoclasts, the bone resorption entry was “inhibited” and the osteoclast formation entry is reported as “inhibited”.
Regarding `O=P(O)(O)C(O)(Cc1cccnc1)P(=O)(O)O` [risedronate, 1-hydroxy-2-(3-pyridinyl)-ethylidene-1,1-bisphosphonic acid], the “inhibition of geranylgeranyl diphosphate synthase” value in assay [2] is on record as “specific nanomolar inhibitors”.
As to `NCCC(O)(P(=O)(O)O)P(=O)(O)O` [pamidronate, 3-amino-1-hydroxypropylidene-1,1-bisphosphonic acid], the “inhibition of squalene synthase” value in assay [1] is “comparatively little effect”. For the same molecule, in the assay with sterol synthesis, the IC50 is 420 nM.
With `O=P(O)(O)C(O)(CCN1CCCC1)P(=O)(O)O` [EB 1053, 1-hydroxy-3-(1-pyrrolidinyl)-propylidene-1,1-bisphosphonic acid], the “inhibition of squalene synthase” value in assay [1] was “potent, nanomolar inhibitors”.
For `O=P(O)(O)C(NC1CCCCCC1)P(=O)(O)O` [YM 175, Cycloheptylaminomethylene-1,1-bisphosphonic acid], the “inhibition of squalene synthase” value in assay [1] is on record as “potent, nanomolar inhibitors”.
Regarding `CC[C@H](C)C(=O)O[C@H]1C[C@@H](C)C=C2C=C[C@H](C)[C@H](CC[C@@H]3C[C@@H](O)CC(=O)O3)[C@H]21` [lovastatin], in the assay with osteoclasts, the bone resorption entry is reported as “inhibited” and the osteoclast formation entry is reported as “inhibited”.
